Laboratory results: ChEMBL document CHEMBL6182871, “Discovery of 4-((quinolin-8-ylthio)methyl)benzamide derivatives as a new class of SARS-CoV-2 nsp13 inhibitors” (Bioorg Med Chem Lett, 2025)

How the values were obtained:
[1] = target: T1, Replicase polyprotein 1ab (Severe acute respiratory syndrome coronavirus 2, UniProt P0DTD1); assay: Inhibition of SARS-CoV-2 nsp13 by FRET assay
[2] = target: T1, Replicase polyprotein 1ab; assay: Binding affinity to SARS-CoV-2 nsp13 assessed as dissociation constant by MST assay

SMILES	IC50 [1]	Kd [2]
O=C(N/N=C/c1cc([N+](=O)[O-])ccc1Cl)c1ccc(COc2cccc3ccccc23)cc1	> 10000 nM	
O=C(N/N=C/c1cc([N+](=O)[O-])ccc1Cl)c1ccc(CSc2ccnc3ccccc23)cc1	760 nM	
O=C(N/N=C/c1cc([N+](=O)[O-])ccc1Cl)c1ccc(CNc2cccc3ccccc23)cc1	> 10000 nM	
COc1cc(/C=N/NC(=O)c2ccc(CSc3cccc4cccnc34)cc2)ccc1O	9190 nM	
CSc1nnc(SCc2ccc(C(=O)N/N=C/c3cc([N+](=O)[O-])ccc3Cl)cc2)s1	> 10000 nM	
COc1ccc(/C=N/NC(=O)c2ccc(CSc3cccc4cccnc34)cc2)c(O)c1	5440 nM	
O=C(N/N=C/c1ccc(F)nc1)c1ccc(CSc2cccc3cccnc23)cc1	660 nM	
O=C(N/N=C/c1ccc(Cl)nc1)c1ccc(CSc2cccc3cccnc23)cc1	5100 nM	
COc1ccc(/C=N/NC(=O)c2ccc(CSc3cccc4cccnc34)cc2)cc1OC	4970 nM	
O=C(N/N=C/c1cc([N+](=O)[O-])ccc1Cl)c1ccc(CSc2cccc3ccccc23)cc1	> 10000 nM	
O=C(N/N=C/c1cc2c(cc1[N+](=O)[O-])OCO2)c1ccc(CSc2cccc3cccnc23)cc1	430 nM	
O=C(N/N=C/c1cc([N+](=O)[O-])ccc1Cl)c1ccc(CSc2ccccc2Br)cc1	> 10000 nM	
C/C(=N\NC(=O)c1ccc(CSc2cccc3cccnc23)cc1)c1ccc(F)nc1	> 10000 nM	
Cn1cc(/C=N/NC(=O)c2ccc(CSc3cccc4cccnc34)cc2)cn1	26800 nM	46100 nM
O=C(N/N=C/c1cccc(F)c1O)c1ccc(CSc2cccc3cccnc23)cc1	2980 nM	
CC(C)NC(=O)c1ccc(/C=N/NC(=O)c2ccc(CSc3cccc4cccnc34)cc2)cc1	940 nM	
O=C(N/N=C/c1cc(F)c(F)cc1O)c1ccc(CSc2cccc3cccnc23)cc1	2340 nM	
O=C(N/N=C/c1ncccn1)c1ccc(CSc2cccc3cccnc23)cc1	> 10000 nM	
O=C(N/N=C/c1cc(O)c(Br)c(O)c1)c1ccc(CSc2cccc3cccnc23)cc1	2060 nM	
O=C(N/N=C/c1ccc(Br)o1)c1ccc(CSc2cccc3cccnc23)cc1	> 10000 nM	
O=C(N/N=C/c1cccc2ccncc12)c1ccc(CSc2cccc3cccnc23)cc1	4330 nM	
O=C(N/N=C/c1cc2ccncc2[nH]1)c1ccc(CSc2cccc3cccnc23)cc1	> 10000 nM	
O=C(N/N=C/c1ccc(F)cc1)c1ccc(CSc2cccc3cccnc23)cc1	2570 nM	
O=C(N/N=C/c1c(O)ccc2ccccc12)c1ccc(CSc2cccc3cccnc23)cc1	3920 nM	
O=C(N/N=C/c1c(Cl)ccnc1Cl)c1ccc(CSc2cccc3cccnc23)cc1	480 nM	
COc1cc(F)ccc1/C=N/NC(=O)c1ccc(CSc2cccc3cccnc23)cc1	2850 nM	
O=C(N/N=C/c1ccc(F)cc1O)c1ccc(CSc2cccc3cccnc23)cc1	2700 nM	
O=C(N/N=C/c1cc([N+](=O)[O-])ccc1Cl)c1ccc(CSc2cccc3cccnc23)cc1	280 nM	
O=C(N/N=C/c1c(Cl)nc(Cl)nc1Cl)c1ccc(CSc2cccc3cccnc23)cc1	2940 nM	
COc1ccc(/C=N/NC(=O)c2ccc(CSc3cccc4cccnc34)cc2)cc1	960 nM	
